Experimental data as given in ChEMBL document CHEMBL3132783, “Design, synthesis and biological evaluation of novel ligustrazinylated derivatives as potent cardiovascular agents” (Medchemcomm, 2013).

How the values were obtained:
[1] = Cytoprotective activity in H2O2-induced human ECV304 cells assessed as proliferation rate at 100 uM incubated for 24 hrs prior to H2O2-challenge measured after 12 hrs by MTT assay relative to control; type: functional; conditions: ECV-304, read-out: Activity
[2] = Antiplatelet activity in rabbit platelet rich plasma assessed as inhibition of ADP-induced aggregation at 0.1 mM treated for 5 mins prior to ADP-challenge relative to control; type: functional; conditions: Oryctolagus cuniculus
[3] = Antiplatelet activity in rabbit platelet rich plasma assessed as inhibition of ADP-induced aggregation at 0.2 mM treated for 5 mins prior to ADP-challenge relative to control; type: functional; conditions: Oryctolagus cuniculus
[4] = Antiplatelet activity in rabbit platelet rich plasma assessed as inhibition of ADP-induced aggregation at 0.05 mM treated for 5 mins prior to ADP-challenge relative to control; type: functional; conditions: Oryctolagus cuniculus
[5] = Antiplatelet activity in rabbit platelet rich plasma assessed as inhibition of ADP-induced aggregation at 0.4 mM treated for 5 mins prior to ADP-challenge relative to control; type: functional; conditions: Oryctolagus cuniculus
[6] = Cytoprotective activity in H2O2-induced human ECV304 cells assessed as proliferation rate at 12.5 uM incubated for 24 hrs prior to H2O2-challenge measured after 12 hrs by MTT assay relative to control; type: functional; conditions: ECV-304, read-out: Activity
[7] = Cytoprotective activity in H2O2-induced human ECV304 cells assessed as proliferation rate at 25 uM incubated for 24 hrs prior to H2O2-challenge measured after 12 hrs by MTT assay relative to control; type: functional; conditions: ECV-304, read-out: Activity
[8] = Cytoprotective activity in H2O2-induced human ECV304 cells assessed as proliferation rate incubated for 24 hrs prior to H2O2-challenge measured after 12 hrs by MTT assay; type: functional, cell-based; conditions: ECV-304
[9] = Antiplatelet activity in rabbit platelet rich plasma assessed as inhibition of ADP-induced aggregation treated for 5 mins prior to ADP-challenge; type: functional; conditions: Oryctolagus cuniculus
[10] = Cytoprotective activity in H2O2-induced human ECV304 cells assessed as proliferation rate at 50 uM incubated for 24 hrs prior to H2O2-challenge measured after 12 hrs by MTT assay relative to control; type: functional; conditions: ECV-304, read-out: Activity
[11] = tested on: ECV-304; experiment: Ratio of ligustrazine EC50 to compound EC50 for human ECV304 cells; type: functional

SMILES	growth at 100 µM [1]	inhibition at 100 µM [2]	inhibition at 200 µM [3]	inhibition at 50 µM [4]	inhibition at 400 µM [5]	growth at 12.5 µM [6]	growth at 25 µM [7]	EC50 [8]	IC50 [9]	growth at 50 µM [10]	Ratio EC50 [11]
Cc1nc(C)c(COc2ccc3ccc(=O)oc3c2)nc1C	46.6%	25%	35.1%	21.7%	39.2%	38.8%	42%	140 µM	1300 µM	44.2%	–
Cc1nc(C)c(CSc2nnnn2-c2ccccc2)nc1C	-136%	12.3%	4.93%	-4.07%	9.33%	-135%	-119%	–	> 2000 µM	-78.4%	–
Cc1nc(C)c(CSc2nnnn2-c2cccc3ccccc23)nc1C	–	10.2%	5.75%	2.25%	13.1%	–	–	–	> 2000 µM	–	–
CSc1snc(OCc2nc(C)c(C)nc2C)c1C#N	–	13.5%	22.6%	3.36%	32.2%	–	25.2%	> 100000 µM	1500 µM	160%	–
Cc1nc(C)c(Cn2nnc3ccccc32)nc1C	-178%	7.23%	16.9%	-2.21%	28.3%	23.2%	25.1%	> 100000 µM	1800 µM	-96.5%	–
Cc1nc(C)c(Cn2cnc3ccccc32)nc1C	–	11%	13.1%	-0.97%	30.9%	-91.8%	-13.8%	–	1900 µM	0.25%	–
Cc1nc(C)c(CNC(=O)CN2CCCC2=O)nc1C	26.4%	10.4%	19.6%	3.23%	36%	-35.8%	14.5%	1300 µM	1200 µM	23.4%	–
Cc1nc(C)c(COC(=O)CCCC[C@@H]2CCSS2)nc1C	206%	13.4%	29%	18.8%	27.6%	-60%	71.4%	4 µM	> 2000 µM	160%	150
C=CCSSCc1nc(C)c(C)nc1C	51.1%	18%	30.4%	16.7%	38.1%	13%	-17.6%	1100 µM	1300 µM	15%	–
C=CCc1ccc(OCc2nc(C)c(C)nc2C)c(OC)c1	36%	1.45%	12.3%	-4.29%	6.42%	22%	28.2%	200 µM	> 2000 µM	30.1%	–
Cc1nc(C)c(COc2ccc3c(C)cc(=O)oc3c2)nc1C	36.6%	8.73%	17.2%	2.27%	40.1%	12%	21%	140 µM	920 µM	25.8%	–
Cc1nc(C)c(CSc2nnc(-c3cccs3)n2N)nc1C	40.2%	13.4%	23.2%	0.15%	38.5%	36.2%	37.4%	330 µM	810 µM	38.2%	–
Cc1nc(C)c(CSc2nc(C)c(CC(=O)O)s2)nc1C	48.1%	35%	38.3%	27.5%	46.9%	44.9%	46.2%	150 µM	620 µM	47%	–
Cc1nc(C)c(CSc2nnnn2C)nc1C	-117%	4.04%	13.5%	1.53%	9.95%	–	-180%	–	> 2000 µM	-77%	–
Cc1nc(C)c(CSc2nc3ccccc3s2)nc1C	17.2%	13.4%	20.9%	5.12%	33.4%	4.33%	7.95%	360 µM	1600 µM	9.51%	–
Cc1nc(C)c(CSc2nnc(-c3ccco3)n2N)nc1C	25.8%	10.4%	20%	-2.62%	35.6%	19%	21.3%	420 µM	940 µM	23.5%	–
CCOC(=O)c1ccccc1OCc1nc(C)c(C)nc1C	20%	10.8%	16.8%	8.7%	21.2%	17.3%	18.1%	1000 µM	2000 µM	19.2%	–
CCOC(=O)c1ccc(OCc2nc(C)c(C)nc2C)c(OC)c1	16%	3.1%	7.48%	9.7%	-3.31%	14.9%	15.5%	3200 µM	> 2000 µM	15.8%	–
Cc1nc(C)c(COc2ccccc2C(=O)O)nc1C	20%	32%	34.6%	15.6%	51.7%	14.1%	17.4%	610 µM	400 µM	18.2%	–
COc1cc(C(=O)O)ccc1OCc1nc(C)c(C)nc1C	19%	1.01%	-11.2%	11.2%	4.41%	15.1%	16.4%	810 µM	> 2000 µM	18.4%	–
Cc1nc(C)c(C)nc1C [LIGUSTRAZINE]	42.8%	–	–	–	–	10.4%	12.7%	600 µM	–	22.1%	–
O=C(O)CCCCC1CCSS1 (stereo not drawn) [LIPOIC ACID, ALPHA]	58.1%	–	–	–	–	30.5%	-12.3%	68 µM	–	48.7%	–
O=C(O)/C=C/c1ccc(Cn2ccnc2)cc1 [OZAGREL]	–	27.3%	45.4%	23.3%	55.3%	–	–	–	360 µM	–	–
